# Measured values published in patent publication US9522908B2, “Ezrin inhibitors and methods of making and using” (Georgetown University, priority 2010, dated 2016).
# Columns and labels:
# ezrin in K7M2 OS cells = target: T1, ezrin in K7M2 OS cells (Mus musculus, UniProt P26040); assay: Endogenous ezrin T567 phosphorylation and actin binding in K7M2 cells (immunoprecipitation/immunoblot); format: cell-based; conditions: 10 μM
# T1 construct: endogenous in cells; host or cells: K7M2 osteosarcoma cells
# Method: (§1) K7M2 cells that were treated with embodied compounds and resolved protein lysates were immunoblotted for co-precipitated phosphorylated ezrin (TOP), or actin (BOTTOM). 4.0×10^6 K7M2 cells were plated in 15 cm dishes. After 24 h, the plates are at least 70% confluent. Media was removed and 10 μM of compound in SF DMEM was added. After the ezrin protein was incubated for 5 h with the indicated compound, the plates were lysed with PLB containing Calyculin A. 2 μL of Ezrin Ab and 10 μM of the compound (prepared in PLB) were added to the lysate and allowed to incubate overnight (14 h), followed by tumbling with Agarose IgG beads. The mixture was run on 10% acrylamide gel and transferred overnight.
# as §1, with “removed and either 7 μM or 10 μM” for “removed and 10 μM”
# For analysis of actin binding to FL and mutant ezrin, K12 cell lysate was incubated with recombinant ezrin protein, then subjected to immunoprecipitation with ezrin antibody (Sigma, St. Louis, Mo.) and immunoblotted with actin antibody (Santa Cruz, Santa Cruz, Calif.). For analysis of inhibition of small molecules on ezrin phosphorylation and actin binding, K7M2 cell lysates were treated with compounds at 10 μM concentration for 6 hours, followed by immunoprecipitation with the ezrin antibody and immunoblotted with phospho-ezrin (Cell Signaling, Danvers, Mass.), actin and ezrin antibodies.
# [1] = target: T2, ezrin / poly-A-binding protein 1 (PABP1) interaction (Mus musculus, UniProt P26040); assay: Ezrin-PABP1 interaction by immunoprecipitation and western blot; format: cell-based; conditions: cells treated 60 min prior to immunoprecipitation
# T2 construct: endogenous in cells; host or cells: K7M2 osteosarcoma cells
# Method: (A) Total cell lysates from K7M2 osteosarcoma cells were immunoprecipitated by using an anti-ezrin antibody. As a control, non-specific total IgG was used. Immunoprecipitates were run on SDS-PAGE and Western Blot was performed using anti-ezrin (lower panel) and anti-PABP1 (upper panel) antibodies. PABP1 protein was detected in immunoprecipitates of ezrin, suggetsing that these two proteins interact with each other in a protein complex. (B) Ezrin-PABP1 interaction was also evaluated in an ELISA experiment where recombinant ezrin protein was immmobilized on surface and total cell lysates from osteosarcoma cells were applied on top. Amount of PABP1 binding to ezrin on the surface was detected by a anti-PABP1 primary antibody followed by enzyme linked secondary antibody. (C) Immunoprecipitation and western experiment was prepared as described in panel A. Cells were treated with NSC305787 (compound 8) and NSC668394 (compound 16) for 60 min prior to immunoprecipitation. Both NSC305787 and NSC668394 inhibited interaction of PABP1 with ezrin
# [2] = system: GFP expressing K7M2 OS cells; assay: Pulmonary metastasis assay (PuMA), lung organ culture; design: species or system mice; conditions: 10 μM
# Method: FIG. 5 illustrates NSC305787 and NSC668394 inhibit OS metastatic growth in lung organ culture. GFP expressing K7M2 OS cells (2×10^5) were injected to tail vein of female BALB/c mice. Within 15 min of tumor cells injection, mice were euthanized and lungs were injected with a mixed agarose/medium solution and then were removed. Complete transverse sections (1-2 mm in thickness) were made from each lobe and 4-5 lung sections were placed on a single 1.5×0.7 cm sterile Gelfoam section. Lung sections were incubated at 37° C. in humidified conditions of 5% CO2. Fresh medium or small molecules (10 μM) were replaced every other day. (A) Quantitation of the fluorescence signal from NSC305787 (10 μM) and NSC668394 (10 μM) treated organ cultures over time. Metastatic burden was quantified by measuring the fluorescent area of metastatic cells in each lung section at each time point and was expressed as mean fluorescent area (mean fluorescent area of each lung section over 4 lung sections). Mean fluorescent area was normalized to 100 pixels for day 0 to allow quantitative evaluation of metastatic progression over time. Data are represented as mean .s.d. from three independent experiments. (B) Fluorescence pictures of a representative culture treated with 10 μM NSC305787 and 10 μM NSC668394 are given on the right panel. […]
# K12 cells = assay: Invasion of HUVEC monolayer by K12 cells (ECIS, xCELLigence); format: cell-based
# Method: FIG. 3 illustrates NSC305787 and NSC668394 inhibit ezrin mediated invasion of OS cells. (A) Endogenous ezrin protein levels in K12 and K7M2 cells are shown. Equal loading is determined by blotting with an actin antibody. […] Error bars represent standard deviation from duplicate data points. The experiments were performed in duplicates. Cell index is a measurement parameter with no units. In this assay a decrease in cell index represents invasion of HUVEC layer by OS cells. It is measured according to the following formula: Cell index=((Rt−R0)/F where, Rt is resistance at time point t, R0 is background resistance (measured with media alone, no cells), and F is frequency at which measurement is taken (10 kHz).
# The anti-invasive potential of NSC305787 and NSC668394 were evaluated by using electric cell impedance sensing (ECIS) on a Roche xCELLigence system (Roche, Indianapolis, Ind.). Briefly, HUVEC cells (25,000/well) were seeded in a 96-well plate in EGM-2 media (Lonza, Basel, CH). Following formation of a confluent HUVEC monolayer (app 32 hrs), EGM-2 media was aspirated and a layer of OS cells (10,000 cells/well) was added in DMEM media containing the compounds. This time point was accepted as 0 hr of treatment and invasion was monitored during the following 6 hrs by measuring changes in resistance at the cell-electrode interphase.
# T1 sequence (P26040 whole entry): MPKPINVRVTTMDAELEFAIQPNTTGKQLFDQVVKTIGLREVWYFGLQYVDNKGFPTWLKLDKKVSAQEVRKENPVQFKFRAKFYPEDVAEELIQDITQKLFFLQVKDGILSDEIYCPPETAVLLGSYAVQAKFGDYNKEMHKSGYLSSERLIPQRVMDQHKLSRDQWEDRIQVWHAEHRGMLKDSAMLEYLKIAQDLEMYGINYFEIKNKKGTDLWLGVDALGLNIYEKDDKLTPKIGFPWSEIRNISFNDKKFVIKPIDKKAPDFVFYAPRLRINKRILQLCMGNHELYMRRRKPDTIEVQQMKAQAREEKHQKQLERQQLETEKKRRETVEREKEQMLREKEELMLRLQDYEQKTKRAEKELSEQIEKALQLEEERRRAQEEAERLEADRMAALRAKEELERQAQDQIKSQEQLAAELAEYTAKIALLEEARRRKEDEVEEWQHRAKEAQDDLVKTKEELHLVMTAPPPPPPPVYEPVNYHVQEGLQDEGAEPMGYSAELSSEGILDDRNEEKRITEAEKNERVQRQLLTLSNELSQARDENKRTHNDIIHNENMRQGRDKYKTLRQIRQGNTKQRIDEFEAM
# T2 sequence (P26040 whole entry): as above
smiles,measurement,setting,value
OC(c1cc(C23CC4CC(CC(C4)C2)C3)nc2c(Cl)cc(Cl)cc12)C1CCCCN1 (stereo not shown) [NSC305787],cellular ezrin protein levels,ezrin in K7M2 OS cells,without altering cellular ezrin protein levels
same,T567 phosphorylation of endogenous ezrin,ezrin in K7M2 OS cells; 6 hours,inhibited
same,actin binding of ezrin,ezrin in K7M2 OS cells; 6 hours,inhibited
same,interaction of PABP1 with ezrin,[1],inhibited
same,lung metastasis of K7M2 cells in lung organ culture (GFP fluorescence),[2],significantly inhibited
same,invasion of K12 cells,K12 cells; 1 μM,did not have any effect
same,invasion of K12 cells,K12 cells; 10 μM,did not have any effect
